Data reported in patent US20170327598A1, “SINGLE DOMAIN ANTIBODIES DIRECTED AGAINST INTRACELLULAR ANTIGENS” (SINGH MOLECULAR MEDICINE, LLC, priority 2014, published 2017).
Several values for one entry are separate records, joined by “and”; a condition that tells them apart may be missing. Identical values can stand only once.

System: VEGF-A production in ARPE-19 cells
Test: VEGF-A ELISA in ARPE-19 retinal cells, Experiment 2;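 note: confluent ARPE-19 cells in 96-well plates, VEGF-A in culture supernatant quantified by ELISA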
Type: cell-based, human
Settings: for pg VEGF-A per mL: based on collecting 0.1 ml of supernatant; for Mean (pg VEGF-A per mL): mean of Adj. Result, Wells 1-3; for Mean (pg VEGF-A per μg protein): mean of Wells 1-3; for Mean (pg VEGF-A per μg protein) / % Control: Experiment 2; for % Control: normalized for protein; for Mean Result (pg VEGF-A per mL) / pg VEGF-A per μg protein / Adj. Result (pg VEGF-A per mL): per well; for Adj. Result (pg VEGF-A per mL): adjusted for dilution; for Result (pg VEGF-A per mL): single reads

Substance: Anti-STAT3 VHH13: anti-STAT3 single domain antibody, SEQ ID NO:3; bacterially produced form referred to as SBT-100
- % Negative Control (0.1 μg/well, 12 Hr): 123.8%
- pg VEGF-A per mL (0.1 μg/well, 12 Hr): 18.6 pg VEGF-A per mL and 14.3 pg VEGF-A per mL and 15 pg VEGF-A per mL
- Mean (pg VEGF-A per mL) (0.1 μg/well, 12 Hr): 159.7 pg VEGF-A per mL
- Mean (pg VEGF-A per μg protein) (0.1 μg/well, 12 Hr): 2.540 pg VEGF-A per μg protein
- % Control (0.1 μg/well, 12 Hr): 134.4%
- Mean Result (pg VEGF-A per mL) (0.1 μg/well, 12 Hr): 37.2 pg VEGF-A per mL and 28.54 pg VEGF-A per mL and 30.06 pg VEGF-A per mL
- pg VEGF-A per μg protein (0.1 μg/well, 12 Hr): 3 pg VEGF-A per μg protein and 2.1 pg VEGF-A per μg protein and 2.4 pg VEGF-A per μg protein
- Adj. Result (pg VEGF-A per mL) (0.1 μg/well, 12 Hr): 186.02 pg VEGF-A per mL and 142.71 pg VEGF-A per mL and 150.31 pg VEGF-A per mL
- Result (pg VEGF-A per mL) (0.1 μg/well, 12 Hr): 30.38 pg VEGF-A per mL and 36.84 pg VEGF-A per mL and 37.57 pg VEGF-A per mL and 29.44 pg VEGF-A per mL and 27.64 pg VEGF-A per mL and 29.74 pg VEGF-A per mL
- % Negative Control (0.1 μg/well, 24 Hr): 93.6%
- pg VEGF-A per mL (0.1 μg/well, 24 Hr): 27.9 pg VEGF-A per mL and 28 pg VEGF-A per mL and 30.4 pg VEGF-A per mL
- Mean (pg VEGF-A per mL) (0.1 μg/well, 24 Hr): 287.4 pg VEGF-A per mL
- Mean (pg VEGF-A per μg protein) (0.1 μg/well, 24 Hr): 4.152 pg VEGF-A per μg protein
- % Control (0.1 μg/well, 24 Hr): 94.1%
- Mean Result (pg VEGF-A per mL) (0.1 μg/well, 24 Hr): 55.73 pg VEGF-A per mL and 56.02 pg VEGF-A per mL and 60.72 pg VEGF-A per mL
- pg VEGF-A per μg protein (0.1 μg/well, 24 Hr): 3.8 pg VEGF-A per μg protein and 4.0 pg VEGF-A per μg protein and 4.7 pg VEGF-A per μg protein
- Adj. Result (pg VEGF-A per mL) (0.1 μg/well, 24 Hr): 278.66 pg VEGF-A per mL and 280.09 pg VEGF-A per mL and 303.58 pg VEGF-A per mL
- Result (pg VEGF-A per mL) (0.1 μg/well, 24 Hr): 58.86 pg VEGF-A per mL and 52.60 pg VEGF-A per mL and 59.52 pg VEGF-A per mL and 52.51 pg VEGF-A per mL and 64.54 pg VEGF-A per mL and 56.89 pg VEGF-A per mL
- % Negative Control (0.1 μg/well, 48 Hr): 100%
- pg VEGF-A per mL (0.1 μg/well, 48 Hr): 94.7 pg VEGF-A per mL and 85.1 pg VEGF-A per mL and 110 pg VEGF-A per mL
- Mean (pg VEGF-A per mL) (0.1 μg/well, 48 Hr): 966 pg VEGF-A per mL
- Mean (pg VEGF-A per μg protein) (0.1 μg/well, 48 Hr): 14.067 pg VEGF-A per μg protein
- % Control (0.1 μg/well, 48 Hr): 107.4%
- Mean Result (pg VEGF-A per mL) (0.1 μg/well, 48 Hr): 189.30 pg VEGF-A per mL and 170.27 pg VEGF-A per mL and 220.04 pg VEGF-A per mL
- pg VEGF-A per μg protein (0.1 μg/well, 48 Hr): 14.1 pg VEGF-A per μg protein and 13.1 pg VEGF-A per μg protein and 15.1 pg VEGF-A per μg protein
- Adj. Result (pg VEGF-A per mL) (0.1 μg/well, 48 Hr): 946.50 pg VEGF-A per mL and 851.33 pg VEGF-A per mL and 1100.22 pg VEGF-A per mL
- Result (pg VEGF-A per mL) (0.1 μg/well, 48 Hr): 195.75 pg VEGF-A per mL and 182.85 pg VEGF-A per mL and 173.80 pg VEGF-A per mL and 166.73 pg VEGF-A per mL and 220.87 pg VEGF-A per mL and 219.22 pg VEGF-A per mL
- % Negative Control (1 μg/well, 12 Hr): 110.5%
- pg VEGF-A per mL (1 μg/well, 12 Hr): 12.9 pg VEGF-A per mL and 13.7 pg VEGF-A per mL and 16.1 pg VEGF-A per mL
- Mean (pg VEGF-A per mL) (1 μg/well, 12 Hr): 142.5 pg VEGF-A per mL
- Mean (pg VEGF-A per μg protein) (1 μg/well, 12 Hr): 2.273 pg VEGF-A per μg protein
- % Control (1 μg/well, 12 Hr): 120.3%
- Mean Result (pg VEGF-A per mL) (1 μg/well, 12 Hr): 25.82 pg VEGF-A per mL and 27.43 pg VEGF-A per mL and 32.23 pg VEGF-A per mL
- pg VEGF-A per μg protein (1 μg/well, 12 Hr): 2 pg VEGF-A per μg protein and 2.2 pg VEGF-A per μg protein and 2.7 pg VEGF-A per μg protein
- Adj. Result (pg VEGF-A per mL) (1 μg/well, 12 Hr): 129.12 pg VEGF-A per mL and 137.14 pg VEGF-A per mL and 161.16 pg VEGF-A per mL
- Result (pg VEGF-A per mL) (1 μg/well, 12 Hr): 26.74 pg VEGF-A per mL and 24.91 pg VEGF-A per mL and 26.62 pg VEGF-A per mL and 28.24 pg VEGF-A per mL and 33.18 pg VEGF-A per mL and 31.29 pg VEGF-A per mL
- % Negative Control (1 μg/well, 24 Hr): 106.8%
- pg VEGF-A per mL (1 μg/well, 24 Hr): 37.3 pg VEGF-A per mL and 31.2 pg VEGF-A per mL and 29.9 pg VEGF-A per mL
- Mean (pg VEGF-A per mL) (1 μg/well, 24 Hr): 327.9 pg VEGF-A per mL
- Mean (pg VEGF-A per μg protein) (1 μg/well, 24 Hr): 4.084 pg VEGF-A per μg protein
- Mean Result (pg VEGF-A per mL) (1 μg/well, 24 Hr): 74.61 pg VEGF-A per mL and 62.42 pg VEGF-A per mL and 59.71 pg VEGF-A per mL
- Adj. Result (pg VEGF-A per mL) (1 μg/well, 24 Hr): 373.06 pg VEGF-A per mL and 312.11 pg VEGF-A per mL and 298.74 pg VEGF-A per mL
- Result (pg VEGF-A per mL) (1 μg/well, 24 Hr): 78.44 pg VEGF-A per mL and 70.78 pg VEGF-A per mL and 68.61 pg VEGF-A per mL and 56.23 pg VEGF-A per mL and 63.71 pg VEGF-A per mL and 55.71 pg VEGF-A per mL
- pg VEGF-A per mL (1 μg/well, 48 Hr): 87.6 pg VEGF-A per mL and 101.9 pg VEGF-A per mL and 111.9 pg VEGF-A per mL
- Mean (pg VEGF-A per mL) (1 μg/well, 48 Hr): 1004.7 pg VEGF-A per mL
- Mean (pg VEGF-A per μg protein) (1 μg/well, 48 Hr): 13.796 pg VEGF-A per μg protein
- % Control (1 μg/well, 48 Hr): 105.4%
- Mean Result (pg VEGF-A per mL) (1 μg/well, 48 Hr): 175.22 pg VEGF-A per mL and 203.89 pg VEGF-A per mL and 223.71 pg VEGF-A per mL
- pg VEGF-A per μg protein (1 μg/well, 48 Hr): 12.4 pg VEGF-A per μg protein and 13.6 pg VEGF-A per μg protein and 15.3 pg VEGF-A per μg protein
- Adj. Result (pg VEGF-A per mL) (1 μg/well, 48 Hr): 876.08 pg VEGF-A per mL and 1019.44 pg VEGF-A per mL and 1118.55 pg VEGF-A per mL
- Result (pg VEGF-A per mL) (1 μg/well, 48 Hr): 168.84 pg VEGF-A per mL and 181.59 pg VEGF-A per mL and 195.75 pg VEGF-A per mL and 212.03 pg VEGF-A per mL and 225.75 pg VEGF-A per mL and 221.67 pg VEGF-A per mL
- % Negative Control (10 μg/well, 12 Hr): 107.8%
- pg VEGF-A per mL (10 μg/well, 12 Hr): 15.2 pg VEGF-A per mL and 12.2 pg VEGF-A per mL and 14.3 pg VEGF-A per mL
- Mean (pg VEGF-A per mL) (10 μg/well, 12 Hr): 139.00 pg VEGF-A per mL
- Mean (pg VEGF-A per μg protein) (10 μg/well, 12 Hr): 2.148 pg VEGF-A per μg protein
- % Control (10 μg/well, 12 Hr): 113.7%
- Mean Result (pg VEGF-A per mL) (10 μg/well, 12 Hr): 30.43 pg VEGF-A per mL and 24.41 pg VEGF-A per mL and 28.58 pg VEGF-A per mL
- pg VEGF-A per μg protein (10 μg/well, 12 Hr): 2.5 pg VEGF-A per μg protein and 1.9 pg VEGF-A per μg protein and 2 pg VEGF-A per μg protein
- Adj. Result (pg VEGF-A per mL) (10 μg/well, 12 Hr): 152.14 pg VEGF-A per mL and 122.07 pg VEGF-A per mL and 142.92 pg VEGF-A per mL
